Data: the METLIN SMRT retention time set (Domingo-Almenara et al. 2019)

Assay: gradient 5% acetonitrile 3 min, to 50% in 2 min, to 85% in 15 min, held 3 min, 100 µL/min
Conditions: column: Zorbax Extend-C18 2.1 x 50 mm; eluents: water / acetonitrile, 0.1% formic acid
How it was run: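 Mixtures of ~100 pure standards were chromatographed on a Zorbax Extend-C18 column (2.1 × 50 mm, 1.8 μm) at 100 μL/min using water and acetonitrile, each with 0.1% formic acid. Detection used a quadrupole time-of-flight mass spectrometer in positive and negative ionization mode, and data collection spanned 3 months. Retention time was obtained from adduct peaks picked computationally and each checked manually.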

RP-LC retention time [s] | SMILES
737 | COC(=O)CNC(=O)N1CCCC1c1ccccc1C (stereo not drawn)
795 | CC(C)CC(=O)N1CCc2[nH]nc(C(=O)NCCCc3ccccc3)c2C1
794 | Cc1ccc(Cl)cc1N(C)S(=O)(=O)c1cc2n(c1)CCCN(C)C2=O
585 | CNC(=O)[C@@H]1CN(C(=O)c2cscn2)C[C@H]1c1nc(C)no1
666 | CC1(C)CC(=O)C(CC(=O)c2ccccc2)=C(NN=C(N)N)C1
608 | Cc1noc(C2CCCCN2Cc2cc(=O)n3ccccc3n2)n1 (stereo not drawn)
1060 | O=C(Nc1cccc(-c2noc(C3CCC3)n2)c1)c1cccs1
985 | Cc1ccc(CNC(=O)Cn2nc3c4cc(-c5cc(C)ccc5C)nn4ccn3c2=O)cc1
616 | CCOC(=O)CNC(=O)N1CCN(Cc2nc3cc(C)ccc3o2)CC1
687 | CC(C)NC(=O)c1ccc(-c2nc3cc(NS(=O)(=O)Cc4cccc(F)c4)ccc3n2C)cc1
752 | O=C(c1ccccc1)N1C[C@@H]2C[C@H]1C[C@@H]2NS(=O)(=O)c1ccccc1
756 | COc1ccc(C(=O)NC(c2ccccc2)c2nnc(N3CCCC3)o2)cc1 (stereo not drawn)
927 | O=C(CCc1conc1-c1ccc(F)cc1)NC1CCCCC1
983 | Cc1ccc(S(=O)(=O)N2CCC(c3nc(-c4ccncc4)no3)CC2)cc1C
620 | Cc1cc(C)c2[nH]c3c(c(=O)c2c1)CN(CC(=O)NCc1ccc(F)cc1)CC3
817 | CCn1cc(S(=O)(=O)Nc2cc(OC)cc(OC)c2)c2cccnc21
796 | COc1ccc(OC)c(Nc2c(-c3ccc(N(C)C)cc3)nc3cnccn23)c1
559 | O=C(Nc1nnc(C2=COCCO2)o1)c1ccco1
676 | Cc1ccc(NC(=O)CN2C(=O)CCc3cc(S(=O)(=O)N4CCCCC4C)ccc32)cc1N(C)C (stereo not drawn)
854 | O=C(Nc1ncc(SCCN2CCCC2)s1)[C@]1(c2ccc(S(=O)(=O)C3CC3)cc2)C[C@H]1C1CCCCC1
638 | O=C(c1ccccc1Cl)N1CCN=C1N1CCCCC1
750 | Cc1ccc(-c2nnc(-c3nc(N4CCCCCC4)c4ccccc4n3)o2)cc1

RP-LC retention time [s] | SMILES
772 | O=C(N[C@H]1C[C@@H]2C[C@H]1CN2C(=O)c1ccc(F)c(Cl)c1)c1ccccc1
734 | Cc1cc(OCC(=O)Nc2ccccc2C(F)(F)F)nc(N2CCCC(C)C2)n1 (stereo not drawn)
887 | COc1ccccc1NC(=O)c1cnc(-c2ccccc2)nc1-c1ccncc1
814 | Cc1ccc(N(C)C(=O)C2CCCN2S(=O)(=O)c2cc3c(cc2C)NC(=O)C(C)O3)cc1 (stereo not drawn)
644 | COc1nn(C)cc1C(=O)NCc1cc(-c2ccco2)on1
905 | CCCNC(=O)c1ccc(-c2ccnc(N3CCCCC3)n2)cc1
714 | COc1ccc(-n2cc(C(=O)OCCc3ccccn3)c3ccccc3c2=O)cc1
776 | COc1ccc(C(=O)NC2CCN(c3cc(-c4ccc(Cl)cc4)[nH]n3)C2)cc1 (stereo not drawn)
584 | Cc1ccc(C(=O)NCCn2c(C)cnc2C2CC2)s1
806 | CN(c1cccc(NC(=O)C2CCN(S(=O)(=O)Cc3ccccc3)CC2)c1)S(C)(=O)=O
700 | CNC(=O)c1ccc(N2CCCN(Cc3ccccc3C)C2=O)cc1
1030 | Cc1ccc(-c2nnc(-c3ccc(Cl)c(S(=O)(=O)N4CCOCC4)c3)o2)cc1
1150 | CCCC(=O)NCCc1c2n(c3ccc(OC)cc13)CCCc1ccccc1-2
690 | c1cc(-c2noc(-c3ccc4c(c3)OCO4)n2)cc(N2CCCC2)n1
1070 | CCCN1C(=O)COc2ccc(-c3noc(-c4cccc5[nH]ccc45)n3)cc21
593 | COc1ccc(NC(=O)c2cnc(N3CCN(C(C)C)CC3)nc2N)cc1
624 | O=C(CCc1ccccc1)N1CCN(c2nc(CN3CCOCC3)cs2)CC1
556 | COCCN(Cc1cccs1)C(=O)CN1C[C@H]2C[C@H](C1)[C@H]1CCCC(=O)N1C2
1300 | Cc1sc(C)c(S(=O)(=O)N2CCN(c3ccccc3)CC2)c1-c1cc(C(F)(F)F)on1
818 | Cc1cccc(N2CCN(C(=O)c3cc4c(=O)n(C)ccc4n3C)CC2)c1C
872 | CCCN(C)S(=O)(=O)c1cc(-c2nnc(C(C)C)o2)co1
777 | COc1cc(/C=C2\SC(=O)N(CC(=O)Nc3nccs3)C2=O)cc(OC)c1OC

RP-LC retention time [s] | SMILES
624 | O=C(c1ccc(S(=O)(=O)NCc2cccnc2)o1)N1CCN(c2ccccc2F)CC1
590 | Cc1cnc(CC2CCN(S(=O)(=O)c3cn(C)cn3)C2)n1Cc1ccccc1 (stereo not drawn)
925 | COCCN1C(=O)c2ccccc2C(C(=O)NCc2ccc(Cl)cc2)C12CCCC2 (stereo not drawn)
788 | CCOc1ccccc1-c1nc(-c2ccc3ncn(CC)c3c2)no1
1010 | Cc1ccccc1CNS(=O)(=O)c1ccc2c(c1)C(=O)N(C)c1ncccc1O2
614 | Cc1ccc(NC(=O)Nc2ccc3nc(N4CCN(C)CC4)cc(C)c3c2)cc1C
741 | CN(CC1CCOC1)C(=O)Cc1ccc(Cl)cc1 (stereo not drawn)
677 | Cc1ccc(NC(=O)N2CCN(c3cc(C)nc(N4CCCC4)n3)CC2)cc1
875 | O=c1cc(-c2cc3c(ccc4ccccc43)oc2=O)c2ccc(O)cc2o1
728 | Cc1nc(-c2ccccc2)sc1C(=O)N1CCC(C(C)C(=O)N2CCOCC2)CC1 (stereo not drawn)
735 | COc1ccc(-c2cc3nc(C)cc(N4CCN(c5nc(C)cc(C)n5)CC4)n3n2)cc1OC
672 | CCOC(=O)c1nc(NC(CC)CN(C)Cc2ccccc2)c2c(C)noc2n1 (stereo not drawn)
629 | O=C(NCc1ccco1)C1CCN(c2cnc3nccnc3c2)CC1
996 | Cc1ccc(S(=O)(=O)N2CCC(C(=O)NCc3csc(-c4ccccc4)n3)CC2)c(C)c1
851 | CC(C)CCNC(=O)c1nc(Nc2ccc(F)cc2)c2ccccc2n1
811 | COc1ccc(NC(=O)c2noc3c2CCC3)cc1OC
817 | COc1ccccc1C1(CNC(=O)Cc2ccccc2Cl)CCOCC1
579 | Cc1ccnc(N2CCCC(C(=O)NCC3CCN(Cc4cccc(F)c4)CC3)C2)n1 (stereo not drawn)
986 | O=C([C@@H]1C[C@H](F)CN1S(=O)(=O)Cc1ccccc1Cl)N1CCc2ccccc2C1
818 | Cc1ccc2c(c1)c1ncn(Cc3nc(C(C)C)no3)c(=O)c1n2CC(=O)N1CCCC1
814 | CCS(=O)(=O)c1ccccc1C(=O)Nc1sc(-c2ccccc2)cc1C(N)=O
658 | Cc1c(NC(=O)c2cccc3c2-c2ccccc2C3=O)c(=O)n(-c2ccccc2)n1C

RP-LC retention time [s] | SMILES
1130 | Cc1nc2cc(-c3noc(Cc4c(Cl)cccc4Cl)n3)ccc2o1
772 | COc1cc(C2CC(=O)N(CC(=O)NCC3CCCO3)c3ccccc3S2)cc(OC)c1OC (stereo not drawn)
816 | CCN1C(=O)c2cccnc2Sc2cc(NC(=O)Cc3ccc(F)cc3)ccc21
633 | CS(=O)(=O)Nc1cccc(NC(=O)c2ccc(N3CCOCC3)nn2)c1
1090 | COC(=O)c1ccc2c(=O)n(Cc3ccc(F)cc3)c(N3CCSC3)nc2c1
608 | COc1ccc(S(=O)(=O)c2cnc3cc4c(cc3c2N2CCN(C)CC2)OCCO4)cc1
839 | O=C(C1COc2ccccc2O1)N1CCN(c2cc(-c3cccs3)[nH]n2)CC1 (stereo not drawn)
650 | COc1cc(-c2nc3ccccn3c2Nc2ccccc2C)ccc1O
899 | COc1ccc(NC(=O)CN2C(=O)CC(c3cccs3)=Nc3ccccc32)cc1
772 | Cc1ccc(C2CC(=O)c3cnc(Nc4nc(C)c5ccccc5n4)nc3C2)cc1 (stereo not drawn)
866 | O=C(Nc1nccs1)C(=O)c1c(-c2ccccc2)cc2ccccn12
900 | Cc1nc(-c2cccc(C(=O)N3CCCc4ccccc43)c2)no1
586 | Cc1cccc2nnc(N3CCCC(C(=O)NCCC(C)C)C3)n12 (stereo not drawn)
873 | COC(=O)c1ccccc1S(=O)(=O)N1CCc2c(c(-c3nnc(-c4ccccc4F)o3)nn2C)C1
618 | COc1ccc(C)cc1NC(=O)Cn1c(N)nc(C)cc1=O
599 | Cc1cccc(CN2CCC(CNC(=O)C3CCCN(c4cc(=O)n(C)c(=O)n4C)C3)CC2)c1 (stereo not drawn)
1000 | CCN1C(=O)C2(CCN(S(=O)(=O)c3cc(Cl)ccc3OC)CC2)c2ccccc21
1080 | CCc1nc2cc(-c3noc(-c4ccccc4OC)n3)ccc2o1
915 | O=C(c1nnn(Cc2ccc(Cl)cc2)c1-n1cccc1)N1CCCC1
799 | Cc1ccc(F)c(NC(=O)C2CC(=O)N(c3ccc4c(c3)CCN4C(=O)C3CC3)C2)c1 (stereo not drawn)
931 | Cn1c(=O)sc2cc(S(=O)(=O)N3CCC(C(=O)NC4CCCCCCC4)CC3)ccc21
614 | Cc1ccc(C(=O)NCc2ccc3c(c2)ncn3C(C)C)s1
